{"source": "patent US20080227855A1", "about": "“Solid Dispersion of Hydrophobic Bioactive” (priority 2005, published 2008)", "key": {"[1]": {"conditions": "indomethacin with PVP, hydrogen bonding; cited from earlier work"}, "[2]": {"assay": "XRPD analysis of crystallinity (amorphous stability) of spray dried dispersions on storage", "format": "physicochemical", "conditions": "stored at room temperature under vacuum (FIG. 8)", "description": "All dispersions were spray dried using a Niro SD spray dryer connected to a nitrogen generator.\nSolutions for dispersions were prepared by dissolving griseofulvin, a major excipient (PVP) and a minor excipient in an acetone water co-solvent system. To ensure homogeneity, the dispersions were allowed to mix for eight hours before the dispersion was spray dried using a Niro SD system under nitrogen conditions with an inlet temperature of 65° C. and an outlet temperature of 45° C. The feed rate was around 15% of maximum and the nitrogen flow rates were 20 kg/hr and 2 kg/hr for the drying and atomization rates respectively.\nThe samples were then stored under constant vacuum for 24 hours to allow for the removal of solvent before being transferred to the required conditions.\nA Philips PW37010 X-ray Powder Diffractometer (Philips, Cambridge, UK) was used to analyse the samples for crystallization, with a sample XRPD scans shown in FIGS. 1a and 1b.\nThis was compressed to produce a flat surface before being loaded into the XRPD. […]\nPure crystalline griseofulvin or flavanone was subjected to the same methodology to produce a standard XRPD scan. A number of peaks were selected from each of these standards to produce a 100% crystalline value expressed as X-ray count/°2Θ these were then compared with the area under the peaks of the dispersions to produce percentage crystallinity values."}, "[3]": {"assay": "Dissolution, USP paddle method", "format": "physicochemical", "conditions": "pH6.8 buffer at 37 C, 100 rpm (FIG. 11)", "description": "Dispersions were prepared as described above containing Gris:PVP 1:1; Gris:PHPMA:PVP 2.5:1.25:1.25, and compared to Gris spray dried without polymer and crystalline Gris. Dissolution data were prepared by placing a small amount of sample in a hard gelatine capsule and following dissolution in pH6.8 buffer at 37 C (with added surfactant if dispersion was required), using a USP paddle method."}, "[4]": {"conditions": "griseofulvin dispersed in PVP (high Tg polymer); cited from earlier work"}}}
{"smiles": "COc1ccc2c(c1)c(CC(=O)O)c(C)n2C(=O)c1ccc(Cl)cc1", "note": "[Indomethacin]", "values": [{"measurement": "amorphous stability", "setting": "[1]", "value": "above that expected on the basis of glass transition temperature alone"}]}
{"smiles": "O=C1CC(c2ccccc2)Oc2ccccc21", "note": "(centres unmarked) [Flavanone]", "values": [{"measurement": "crystallinity by XRPD", "setting": "[2]; Flavanone dispersed with PVP", "value": "near completely crystalline"}, {"measurement": "crystallinity by XRPD", "setting": "[2]; Flavanone dispersed with a combination of PHPMA and PVP", "value": "only partial crystallinity"}]}
{"smiles": "COC1=CC(=O)C[C@@H](C)[C@]12Oc1c(Cl)c(OC)cc(OC)c1C2=O", "note": "[griseofulvin, Griseofulvin]", "values": [{"measurement": "dissolution", "setting": "[3]", "value": "slow dissolution"}, {"measurement": "crystallisation of drug dispersed in polymer", "setting": "[4]", "value": "relatively rapid crystallisation"}]}
